Patent publication US20060058286A1, “Methods of treating HIV infection” (priority 2004, published 2006)

Legend:
HIV-1 NL4-3 [1] = experiment: Two-drug combination study with Compound 1 (combination indices); assay type: cell-based; conditions: for Combination Indices at 50% HIV Inhibition (Confidence Interval) / Combination Indices at 75% HIV Inhibition (Confidence Interval) / Combination Indices at 90% HIV Inhibition (Confidence Interval): 95% CI in parentheses; for Overall Result: overall antiviral effect of the two-drug combination with Compound 1, all ratios and effective levels
Experimental: (§1) Virus and cell lines. The T-cell line, MT-2 was obtained through the AIDS Research and Reference Reagent Program, NIAID and was contributed by Dr. D. Richman. The cell line was cultured in RPMI 1640 medium supplemented with 10% fetal bovine serum, 2 mM L-glutamine and sub-cultured twice a week. The NL4-3 strain of HIV-1 was obtained from the AIDS Research and Reference Reagent Program. Both virus stocks were amplified and titered in MT-2 cells using a virus infectivity assay.
(§2) Drug Susceptibility and Cytotoxicity Assays. For drug susceptibility assays, MT-2 cells were infected with HIV-1 NL4-3 at an MOI of 0.001, and seeded into 96-well microtiter plates (2.5×10^5 cells/ml) containing serial dilutions of test compounds. […] Each drug ratio consisted of an array of 3-fold serial dilutions, and was performed in quadruplicate. The plates were incubated at 37° C./5% CO2. The MT-2 cells infected with HIV-1 NL4-3 were incubated for 5 days. On day-five post-infection, 20 μl from each well was harvested and quantitated by a reverse transcriptase (RT) assay or an MTS assay. Cytotoxicity assays were performed using uninfected cells, exposed to the same drug combinations, and incubated for five days. Cell viability was determined by an XTT assay. The CC50 values were calculated by using the exponential form of the median effect equation as mentioned below for calculation of EC50.
Analysis of Drug Combination Effects. For determination of CI values, drugs were diluted in a fixed ratio and multiple ratios were analyzed. The drug serial dilutions spanned a range of concentrations near the EC50 value of each compound, so that equivalent antiviral activities could be compared. Concentration-response curves were estimated for each individual drug and every combination using the median-effect equation. The equation was fit using a nonlinear regression routine (Proc Nlin) in PC SAS version 8.01 (SAS Institute Inc., SAS Version 8.01, Cary, N.C.: SAS Institute Inc., 1990).
(§3) In this equation, Fa stands for “fraction affected,” and represents the fraction of the viral load that has been inactivated.
To assess antiviral effects of different drug combination treatments, combination indices (CIs) were calculated according to Chou and Rideout. The combination index was computed as CI=[D]1/[Dm]1+[D]2/[Dm]2
In this equation [Dm]1 and [Dm]2 are the concentrations of drugs that would individually produce a specific level of effect, while [D]1 and [D]2 are the concentrations of drugs in combination that would produce the same level of effect.
Theoretically, additivity is implied if the CI is equal to one, synergy if the CI is less than one, and antagonism if the CI is greater than one. […] At best, we can construct a range that contains the likely values for the CI, given the noise in the data. In this report, these ranges are reported in parentheses next to each point estimate of the CI. […] If the range fell entirely above 1.0, we would infer antagonistic behavior. If the range were to include 1.0, we would infer additivity.

HIV-1 NL4-3 [2] = experiment: microbe, parasite or virus in culture
Experimental: as §1, §2, §3
In carrying out the combination experiments below, the EC50 for Compound 1 and each comparator compound was determined during the course of each study, and used in the subsequent data analysis.

[3] = combination with Compound 1, EC50 ratio 1:1 (Compound 1:comparator)
[4] = combination with Compound 1, EC50 ratio 1:2.5 (Compound 1:comparator)
[5] = combination with Compound 1, EC50 ratio 2.5:1 (Compound 1:comparator)
[6] = Human immunodeficiency virus 1, NL43, MT2, 120 h

Row | SMILES | Combination Indices at 50% HIV Inhibition (Confidence Interval) (HIV-1 NL4-3 [1]; [3]) | Combination Indices at 75% HIV Inhibition (Confidence Interval) (HIV-1 NL4-3 [1]; [3]) | Combination Indices at 90% HIV Inhibition (Confidence Interval) (HIV-1 NL4-3 [1]; [3]) | Combination Indices at 50% HIV Inhibition (Confidence Interval) (HIV-1 NL4-3 [1]; [4]) | Combination Indices at 75% HIV Inhibition (Confidence Interval) (HIV-1 NL4-3 [1]; [4]) | Combination Indices at 90% HIV Inhibition (Confidence Interval) (HIV-1 NL4-3 [1]; [4]) | Combination Indices at 50% HIV Inhibition (Confidence Interval) (HIV-1 NL4-3 [1]; [5]) | Combination Indices at 75% HIV Inhibition (Confidence Interval) (HIV-1 NL4-3 [1]; [5]) | Combination Indices at 90% HIV Inhibition (Confidence Interval) (HIV-1 NL4-3 [1]; [5]) | Overall Result (HIV-1 NL4-3 [1]) | EC50 (HIV-1 NL4-3 [2]; [6]) [nM] | further results
1 | CC(C)(C)NC(=O)[C@@H]1CN(Cc2cccnc2)CCN1C[C@@H](O)C[C@@H](Cc1ccccc1)C(=O)N[C@H]1c2ccccc2C[C@H]1O [Indinavir, indinavir] | 0.64 (0.42, 0.85) | 1.17 (0.63, 1.71) | 2.15 (0.53, 3.78) | 0.92 (0.68, 1.16) | 1.07 (0.68, 1.46) | 1.24 (0.51, 1.97) | 0.41 (0.29, 0.53) | 0.70 (0.42, 0.97) | 1.19 (0.40, 1.97) | Additive- | 6 | Overall Result (HIV-1 NL4-3 [1]; listed as indinavir): additive to synergistic
2 | Nc1ccn([C@@H]2CS[C@H](CO)O2)c(=O)n1 [Lamivudine, lamivudine] | 0.69 (0.58, 0.81) | 0.49 (0.38, 0.61) | 0.37 (0.25, 0.50) | 0.58 (0.52, 0.65) | 0.60 (0.51, 0.69) | 0.64 (0.49, 0.80) | 0.93 (0.65, 1.20) | 0.78 (0.46, 1.10) | 0.70 (0.24, 1.16) |  | 190 | 
3 | Cc1cccc(C)c1OCC(=O)N[C@@H](Cc1ccccc1)[C@@H](O)C[C@H](Cc1ccccc1)NC(=O)[C@H](C(C)C)N1CCCNC1=O [Lopinavir, lopinavir] | 0.16 (0.11, 0.22) | 0.16 (0.08, 0.24) | 0.16 (0.04, 0.28) |  | 0.57 (0.46 0.68) | 0.32 (0.22, 0.42) | 1.60 (1.28, 1.92) | 0.78 (0.56, 1.00) | 0.38 (0.22, 0.55) | Additive- | 14 | Overall Result (HIV-1 NL4-3 [1]; listed as lopinavir): additive to synergistic
4 | Cc1c(O)cccc1C(=O)N[C@@H](CSc1ccccc1)[C@H](O)CN1C[C@H]2CCCC[C@H]2C[C@H]1C(=O)NC(C)(C)C [Nelfinavir, nelfinavir] | 0.55 (0.45, 0.65) | 0.57 (0.42, 0.71) | 0.59 (0.35, 0.83) | 0.41 (0.34, 0.49) | 0.50 (0.38, 0.63) | 0.62 (0.36, 0.87) | 0.82 (0.65, 0.99) | 0.84 (0.60, 1.08) | 0.87 (0.47, 1.27) | Moderately | 8 | combination effect at the 5:1 and 2:1 molar ratios (HIV-1 NL4-3 [1]; combination with Compound 1, all effective levels): synergy; combination effect at the 12.5:1 molar ratio (HIV-1 NL4-3 [1]; combination with Compound 1, only at the 75% and 90% effective levels): bias toward additivity; Overall Result (HIV-1 NL4-3 [1]; listed as nelfinavir): moderately synergistic
5 | Cc1ccnc2c1NC(=O)c1cccnc1N2C1CC1 [Nevirapine, nevirapine] | 0.51 (0.39, 0.63) | 0.30 (0.20, 0.40) | 0.18 (0.08, 0.27) | 0.63 (0.42, 0.83) | 0.40 (0.22, 0.59) | 0.26 (0.07, 0.46) | 0.52 (0.39, 0.64) | 0.32 (0.22, 0.43) | 0.21 (0.10, 0.31) | Synergistic | 85 | Overall Result (HIV-1 NL4-3 [1]; listed as nevirapine): strong synergistic effects
6 | CC(C)c1nc(CN(C)C(=O)N[C@H](C(=O)N[C@@H](Cc2ccccc2)C[C@H](O)[C@H](Cc2ccccc2)NC(=O)OCc2cncs2)C(C)C)cs1 [Ritonavir, ritonavir] | 1.35 (0.72, 1.97) | 1.74 (0.61, 2.87) | 2.56 (0.00, 5.18) | 1.23 (0.73, 1.74) | 1.24 (0.53, 1.96) | 1.39 (0.13, 2.65) | 1.37 (0.95, 1.80) | 1.18 (0.67, 1.68) | 1.13 (0.37, 1.88) | Additive | 24 | 
7 | CC(C)(C)NC(=O)[C@@H]1C[C@@H]2CCCC[C@@H]2CN1C[C@@H](O)[C@H](Cc1ccccc1)NC(=O)[C@H](CC(N)=O)NC(=O)c1ccc2ccccc2n1 [Saquinavir, saquinavir] | 0.65 (0.49, 0.80) | 0.85 (0.56, 1.14) | 1.20 (0.55, 1.84) | 0.55 (0.42, 0.68) | 0.97 (0.65, 1.29) | 1.81 (0.86, 2.77) | 0.47 (0.38, 0.56) | 0.60 (0.44, 0.75) |  | Additive- | 11 | Overall Result (HIV-1 NL4-3 [1]; listed as saquinavir): additive to synergistic
8 | Cc1cn([C@H]2C=C[C@@H](CO)O2)c(=O)[nH]c1=O [Stavudine, stavudine] | 0.63 (0.42, 0.85) | 0.51 (0.29, 0.74) | 0.43 (0.10, 0.75) | 1.32 (0.94, 1.69) | 0.68 (0.41, 0.94) | 0.36 (0.12, 0.59) | 1.20 (0.88, 1.51) | 0.71 (0.45, 0.96) | 0.43 (0.17, 0.68) | Additive- | 55 | combination effect at the 50% effective level (HIV-1 NL4-3 [1]; combination with Compound 1): additivity; combination effect at the 75% and 90% effective levels (HIV-1 NL4-3 [1]; combination with Compound 1): synergy; Overall Result (HIV-1 NL4-3 [1]; listed as stavudine): additive-synergistic
9 | C[C@H](Cn1cnc2c(N)ncnc21)OCP(=O)(O)O [Tenofovir, tenofovir] | 1.30 (1.00, 1.61) | 1.02 (0.69, 1.35) | 0.80 (0.39, 1.21) | 0.93 (0.63, 1.23) | 0.99 (0.54, 1.43) | 1.06 (0.31, 1.80) | 1.03 (0.65, 1.40) | 0.84 (0.42, 1.27) | 0.70 (0.14, 1.25) | Additive |  | EC50 (HIV-1 NL4-3 [2]; MT-2 cells infected with HIV-1 NL4-3, MOI 0.001, 5 days, single drug): 3 nM
